Measurements from ChEMBL document CHEMBL5661943, “ASAP - In vitro antiviral effect” (2024).
“And” between values parts separate entries of the source, which are not always exact repeats. Equal values may be shown once.

Legend:
Zika virus = assay: EC50 is reported via analysis of immunofluorescence staining. The assay has been performed by Icahn School of Medicine at Mount Sinai.; type: functional, organism-based, Chlorocebus sabaeus, VeroE6/TMPRSS2
dengue virus type 2 [1] = assay: Functional immunofluorescence assay to measure dose dependent changes in antiviral-drug inhibitory efficacy against Dengue virus type 2 Thailand/16681/84 in Vero E6/TMPRSS2 cells (cotreated with P-gp inhibitor, Elacridar). Cells are treated with antiviral candidates that are serially diluted, following infection, cells are fixed. EC50 is reported via analysis of immunofluorescence staining. The assay has been performed by Icahn School of Medicine at Mount Sinai.; type: organism-based, Chlorocebus sabaeus, VeroE6/TMPRSS2; conditions: for EC90: P-gp concentration 2 uM, P-gp inhibitor Elacidar
dengue virus type 2 [2] = assay: Functional assay to measure dose dependent changes in antiviral-drug inhibitory efficacy against Dengue virus type 2 New Guinea C in Vero E6 miRFP670 cells (cotreated with P-gp inhibitor, CP100356). Cells are treated with antiviral candidates that are serially diluted, following infection, cells are fixed. EC50 is reported via analysis of fluorescence intensity using high-content imager. The …; type: organism-based, Chlorocebus sabaeus, Vero C1008; conditions: Dengue virus; for EC90: P-gp concentration 500 nM, P-gp inhibitor CP100356

With `NCc1cccc(NC(=O)c2cc(Cl)cc(-n3cccc3)c2)c1` the EC50 (Zika virus; Zika virus, VeroE6/TMPRSS2) was > 5.56 µM, the EC90 (Zika virus; Zika virus, VeroE6/TMPRSS2, Maximum measured 124.363 %, Minimum measured 74.851 %, P-gp concentration 2 uM, P-gp inhibitor Elacidar) was > 5.56 µM and the EC50 (dengue virus type 2 [1]; Dengue virus, VeroE6/TMPRSS2) was 13.9 µM. For the same compound, the EC90 (dengue virus type 2 [1]; Dengue virus, VeroE6/TMPRSS2, Baseline response 0 %, Hill slope -2.713, Maximum measured 77.83 %, Maximum response 65.791 %, Minimum measured 24.724 %, R squared 0.597) was > 16.7 µM, the EC50 (dengue virus type 2 [2]; Vero C1008) was 14.4 µM and the EC90 (dengue virus type 2 [2]; Vero C1008, Baseline response 0 %, EC90 CI (lower) 7.414 uM, EC90 CI (upper) 19.74 uM, Hill slope -12.44, Maximum measured 108.218 %, Maximum response 100 %, Minimum measured 0.325 %, R squared 0.952) was 17.2 µM.

With `NCc1cccc(NC(=O)c2cc(Cl)cc(CN)c2)c1` the EC90 (Zika virus; Zika virus, VeroE6/TMPRSS2, Maximum measured 123.027 %, Minimum measured 86.3 %, P-gp concentration 2 uM, P-gp inhibitor Elacidar) was > 50 µM, the EC90 (Zika virus; Zika virus, VeroE6/TMPRSS2, Baseline response 0 %, Hill slope -0.468, Maximum measured 130.938 %, Maximum response 100 %, Minimum measured 51.052 %, P-gp concentration 2 uM, R squared 0.396, P-gp inhibitor Elacidar) was > 3.33 µM and the EC50 (Zika virus; veroe6/tmprss2) was > 50 µM. For the same compound, the EC90 (dengue virus type 2 [1]; Baseline response 0 %, Hill slope -0.259, Maximum measured 118.193 %, Maximum response 100 %, Minimum measured 55.278 %, R squared 0.275) was > 10 µM, the EC90 (dengue virus type 2 [1]; Baseline response 0 %, Hill slope -0.379, Maximum measured 148.524 %, Maximum response 100 %, Minimum measured 29.621 %, R squared 0.276) was > 50 µM and the EC50 (dengue virus type 2 [1]; veroe6/tmprss2) was > 10 µM and 48.2 µM.

`c1ccc2c(CN3CCC(c4cscn4)CC3)c[nH]c2c1` was tested, and the EC90 (Zika virus; Zika virus, VeroE6/TMPRSS2, Maximum measured 113.51 %, Minimum measured 55.055 %, P-gp concentration 2 uM, P-gp inhibitor Elacidar) was > 10 µM, the EC90 (Zika virus; Zika virus, VeroE6/TMPRSS2, Maximum measured 115.408 %, Minimum measured 68.286 %, P-gp concentration 2 uM, P-gp inhibitor Elacidar) was > 50 µM and the EC50 (Zika virus; veroe6/tmprss2) was > 50 µM. For the same compound, the EC90 (dengue virus type 2 [1]; Baseline response 0 %, Hill slope -0.247, Maximum measured 100.251 %, Maximum response 100 %, Minimum measured 62.836 %, R squared 0.15) was > 10 µM, the EC90 (dengue virus type 2 [1]; Baseline response 0 %, Hill slope -0.248, Maximum measured 160.986 %, Maximum response 100 %, Minimum measured 66.91 %, R squared 0.115) was > 50 µM and the EC50 (dengue virus type 2 [1]; veroe6/tmprss2) was > 50 µM.

`NCCCCc1ccc(NC(=O)c2cc(Cl)cc(NC(=O)OCc3ccccc3)c2)cc1` was tested, and the EC50 (Zika virus; Zika virus, VeroE6/TMPRSS2) was > 5.56 µM, the EC90 (Zika virus; Zika virus, VeroE6/TMPRSS2, Maximum measured 140.797 %, Minimum measured 81.401 %, P-gp concentration 2 uM, P-gp inhibitor Elacidar) was > 5.56 µM and the EC50 (dengue virus type 2 [1]; Dengue virus, VeroE6/TMPRSS2) was > 5.56 µM. For the same compound, the EC90 (dengue virus type 2 [1]; Dengue virus, VeroE6/TMPRSS2, Maximum measured 145.088 %, Minimum measured 103.355 %) was > 5.56 µM, the EC50 (dengue virus type 2 [2]; Vero C1008) was 4.18 µM and the EC90 (dengue virus type 2 [2]; Vero C1008, Baseline response 0 %, EC90 CI (lower) 1.854 uM, EC90 CI (upper) 4.634 uM, Hill slope -6.186, Maximum measured 92.478 %, Maximum response 100 %, Minimum measured 7.244 %, R squared 0.772) was 5.96 µM.

With `CC(C)OC(=O)Nc1cc(Cl)cc(C(=O)Nc2cccc(CN)c2)c1` the EC50 (Zika virus; Zika virus, VeroE6/TMPRSS2) was > 16.7 µM, the EC90 (Zika virus; Zika virus, VeroE6/TMPRSS2, Maximum measured 132.205 %, Minimum measured 71.008 %, P-gp concentration 2 uM, P-gp inhibitor Elacidar) was > 16.7 µM and the EC50 (dengue virus type 2 [1]; Dengue virus, VeroE6/TMPRSS2) was > 16.7 µM. The EC90 (dengue virus type 2 [1]; Dengue virus, VeroE6/TMPRSS2, Baseline response 0 %, Hill slope -10.347, Maximum measured 131.012 %, Maximum response 100 %, Minimum measured 66.05 %, R squared 0.241) was > 16.7 µM, the EC50 (dengue virus type 2 [2]; Vero C1008) was > 6.25 µM and the EC90 (dengue virus type 2 [2]; Vero C1008, Maximum measured 143.842 %, Minimum measured 98.266 %) was > 6.25 µM.

`NCCCc1ccnc(NC(=O)c2cc(Cl)cc(NC(=O)OCc3ccccc3)c2)c1` was tested, and the EC50 (Zika virus; Zika virus, VeroE6/TMPRSS2) was 0.532 µM, the EC90 (Zika virus; Zika virus, VeroE6/TMPRSS2) was 3.24 µM and the EC50 (dengue virus type 2 [1]; Dengue virus, VeroE6/TMPRSS2) was > 5.56 µM. For the same compound, the EC90 (dengue virus type 2 [1]; Dengue virus, VeroE6/TMPRSS2, Baseline response 0 %, Hill slope -1.225, Maximum measured 82.874 %, Maximum response 60 %, Minimum measured 33.609 %, R squared 0.331) was > 5.56 µM.

`NS(=O)(=O)c1ccc(C2CCN(Cc3c[nH]c4ccccc34)CC2)cc1` was tested, and the EC90 (Zika virus; Zika virus, VeroE6/TMPRSS2, Maximum measured 220.71 %, Minimum measured 69.091 %, P-gp concentration 2 uM, P-gp inhibitor Elacidar) was > 10 µM, the EC90 (Zika virus; Zika virus, VeroE6/TMPRSS2, Baseline response 0 %, Hill slope -0.394, Maximum measured 150.63 %, Maximum response 100 %, Minimum measured 65.565 %, P-gp concentration 2 uM, R squared 0.026, P-gp inhibitor Elacidar) was > 50 µM and the EC50 (Zika virus; veroe6/tmprss2) was > 50 µM. The EC50 (dengue virus type 2 [1]; Dengue virus, VeroE6/TMPRSS2) was > 50 µM and the EC90 (dengue virus type 2 [1]; Dengue virus, VeroE6/TMPRSS2, Baseline response 0 %, Hill slope -0.438, Maximum measured 120.121 %, Maximum response 100 %, Minimum measured 70.269 %, R squared 0.213) was > 50 µM.

In the case of `O=C(Nc1cc(Cl)cc(N[C@H](C#CCO)c2ccc(-c3nn[nH]n3)cc2)c1)OCc1ccccc1`, the EC50 (Zika virus; Zika virus, VeroE6/TMPRSS2) is reported as > 16.7 µM, the EC90 (Zika virus; Zika virus, VeroE6/TMPRSS2, Maximum measured 78.226 %, Minimum measured 29.543 %, P-gp concentration 2 uM, P-gp inhibitor Elacidar) is reported as > 16.7 µM and the EC50 (dengue virus type 2 [1]; Dengue virus, VeroE6/TMPRSS2) is reported as > 50 µM. The EC90 (dengue virus type 2 [1]; Dengue virus, VeroE6/TMPRSS2, Baseline response 0 %, Hill slope -0.373, Maximum measured 106.055 %, Maximum response 100 %, Minimum measured 56.8 %, R squared 0.212) was > 50 µM.

`O=C(O)c1cc(Cl)ccc1S(=O)(=O)NC1CCN(c2nc(C3CC3)cc(C(F)(F)F)n2)CC1` was tested, and the EC90 (Zika virus; Zika virus, VeroE6/TMPRSS2, Maximum measured 121.005 %, Minimum measured 84.589 %, P-gp concentration 2 uM, P-gp inhibitor Elacidar) was > 16.7 µM, the EC90 (Zika virus; Zika virus, VeroE6/TMPRSS2, Baseline response 0 %, Hill slope -0.273, Maximum measured 117.096 %, Maximum response 100 %, Minimum measured 55.547 %, P-gp concentration 2 uM, R squared 0.133, P-gp inhibitor Elacidar) was > 3.33 µM and the EC50 (Zika virus; veroe6/tmprss2) was > 16.7 µM. The EC90 (dengue virus type 2 [1]; Dengue virus, VeroE6/TMPRSS2, Maximum measured 136.17 %, Minimum measured 94.607 %) was > 16.7 µM, the EC90 (dengue virus type 2 [1]; Dengue virus, VeroE6/TMPRSS2, Baseline response 0 %, Hill slope -0.112, Maximum measured 104.285 %, Maximum response 100 %, Minimum measured 47.241 %, R squared 0.035) was > 3.33 µM and the EC50 (dengue virus type 2 [1]; veroe6/tmprss2) was > 16.7 µM.
